Results from BindingDB's records for doi:10.1016/s0960-894x(01)00475-9 (Glaxosmithkline, 2001).
Peptide text beside a SMILES is read from it.

Experiment: Inhibitory activity against Bacterial Tyrosyl tRNA Synthetase

Structure (SMILES) | IC50 [nM]
CCOC(=O)[C@H](NC(=O)[C@@H](N)Cc1ccc(O)cc1)[C@@H]1CC[C@H](O)[C@H](O)[C@H]1O [(R)-[(S)-2-Amino-3-(4-hydroxy-phenyl)-propionylamino]-((1S,2S,3S,4S)-2,3,4-trihydroxy-cyclohexyl)-acetic acid ethyl ester] | > 3000
CCOC(=O)[C@H](NC(=O)[C@@H](N)Cc1ccc(O)cc1)[C@@H]1C=C[C@H](O)[C@H](O)[C@H]1O [(R)-[(S)-2-Amino-3-(4-hydroxy-phenyl)-propionylamino]-((1S,4S,5S,6S)-4,5,6-trihydroxy-cyclohex-2-enyl)-acetic acid ethyl ester] | 124
CCOC(=O)[C@@H](NC(=O)[C@@H](N)Cc1ccc(O)cc1)[C@@H]1CC[C@H](O)[C@H](O)[C@H]1O [(S)-[(S)-2-Amino-3-(4-hydroxy-phenyl)-propionylamino]-((1S,2S,3S,4S)-2,3,4-trihydroxy-cyclohexyl)-acetic acid ethyl ester] | 245

The next lines start with the values.

IC50 [nM] | Structure (SMILES)
3.4 | CCOC(=O)[C@@H](NC(=O)[C@@H](N)Cc1ccc(O)cc1)[C@@H]1C=C[C@H](O)[C@H](O)[C@H]1O [(S)-[(S)-2-Amino-3-(4-hydroxy-phenyl)-propionylamino]-((1S,4S,5S,6S)-4,5,6-trihydroxy-cyclohex-2-enyl)-acetic acid ethyl ester]
> 3000 | COC(=O)[C@@H](NC(=O)[C@@H](N)Cc1ccc(O)cc1)C1CCCCC1 [(S)-[(S)-2-Amino-3-(4-hydroxy-phenyl)-propionylamino]-cyclohexyl-acetic acid methyl ester] (HELM PEPTIDE1{Y.[O=C([C@@H](N[*:1])C1CCCCC1)[*:2]].[CO[*:1]]}$$$$V2.0)
